Measured values taken from PubChem BioAssay (NCI).
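Exposure lasted 48 hours, with cells grown in 96-well plates and compounds tested at five concentrations. Here, GI50 denotes the concentration required for 50% inhibition of growth. Definition used: TGI = concentration required for complete inhibition of growth.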

How the values were obtained:
Assay in all cases: NCI tumour cell line growth inhibition, 48 h
[1] = tested on: SK-OV-3 ovarian
[2] = tested on: SW-620 colon
[3] = tested on: SF-539 CNS
[4] = tested on: RPMI-8226 leukemia
[5] = tested on: CAKI-1 renal
[6] = tested on: CCRF-CEM leukemia
[7] = tested on: RXF 393 renal
[8] = tested on: SK-MEL-2 melanoma
[9] = tested on: HS 578T breast
[10] = tested on: OVCAR-5 ovarian
[11] = tested on: A498 renal
[12] = tested on: HOP-92 NSCLC
[13] = tested on: PC-3 prostate
[14] = tested on: NCI-H522 lung
[15] = tested on: T-47D breast
[16] = tested on: NCI-H23 lung
[17] = tested on: EKVX NSCLC
[18] = tested on: TK-10 renal
[19] = tested on: NCI/ADR-RES ovarian
[20] = tested on: UO-31 renal
[21] = tested on: OVCAR-4 ovarian
[22] = tested on: U251 CNS
[23] = tested on: MALME-3M melanoma
[24] = tested on: SNB-75 CNS
[25] = tested on: SF-295 CNS
[26] = tested on: ACHN renal
[27] = tested on: MDA-MB-435
[28] = tested on: DU-145 prostate
[29] = tested on: KM12 colon
[30] = tested on: SF-268 CNS
[31] = tested on: SK-MEL-28 melanoma
[32] = tested on: SN12C renal
[33] = tested on: HOP-62 NSCLC
[34] = tested on: UACC-62 melanoma
[35] = tested on: NCI-H226 lung
[36] = tested on: SNB-19 CNS
[37] = tested on: OVCAR-3 ovarian
[38] = tested on: MOLT-4 leukemia
[39] = tested on: K-562 leukemia
[40] = tested on: 786-0 renal
[41] = tested on: HCC-2998 colon
[42] = tested on: SK-MEL-5 melanoma
[43] = tested on: SR leukemia
[44] = tested on: BT-549 breast
[45] = tested on: A549 NSCLC
[46] = tested on: HT29 colon
[47] = tested on: COLO 205 colon
[48] = tested on: MDA-MB-231 breast
[49] = tested on: MCF7 breast
[50] = tested on: HCT-15 colon
[51] = tested on: HL-60(TB) leukemia
[52] = tested on: UACC-257 melanoma
[53] = tested on: NCI-H460 lung
[54] = tested on: LOX IMVI melanoma
[55] = tested on: IGROV1 ovarian
[56] = tested on: HCT-116 colon
[57] = tested on: OVCAR-8 ovarian

Cc1ccc(S(=O)(=O)OC[C@@]2(C)CC[C@]3(C)CC[C@]4(C)C(=C3C2)C=C[C@@H]2[C@@]3(C)CCCNC(C)(C)[C@@H]3CC[C@]24C)cc1
GI50 [1]: 1.79 µM
TGI [1]: 3.25 µM
GI50 [2]: 1.78 µM
TGI [2]: 3.54 µM
GI50 [3]: 1.71 µM
TGI [3]: 3.11 µM
GI50 [4]: 2.12 µM
TGI [4]: 4.63 µM
GI50 [5]: 1.61 µM
TGI [5]: 3.06 µM
GI50 [6]: 2.14 µM
TGI [6]: 6.06 µM
GI50 [7]: 1.35 µM
TGI [7]: 2.86 µM
GI50 [8]: 1.88 µM
TGI [8]: 3.52 µM
GI50 [9]: 1.94 µM
TGI [9]: 4.26 µM
GI50 [10]: 1.77 µM
TGI [10]: 3.21 µM
GI50 [11]: 1.71 µM
TGI [11]: 3.13 µM
GI50 [12]: 1.45 µM
TGI [12]: 2.97 µM
GI50 [13]: 1.53 µM
TGI [13]: 2.98 µM
GI50 [14]: 1.7 µM
TGI [14]: 3.36 µM
GI50 [15]: 1.55 µM
TGI [15]: 3.26 µM
GI50 [16]: 1.82 µM
TGI [16]: 3.42 µM
GI50 [17]: 1.7 µM
TGI [17]: 3.29 µM
GI50 [18]: 1.88 µM
TGI [18]: 3.59 µM
GI50 [19]: 2.05 µM
TGI [19]: 4.59 µM
GI50 [20]: 1.46 µM
TGI [20]: 2.85 µM
GI50 [21]: 1.66 µM
TGI [21]: 3.16 µM
GI50 [22]: 1.66 µM
TGI [22]: 3.17 µM
GI50 [23]: 1.68 µM
TGI [23]: 3.26 µM
GI50 [24]: 1.61 µM
TGI [24]: 3.1 µM
GI50 [25]: 1.78 µM
TGI [25]: 3.29 µM
GI50 [26]: 1.72 µM
TGI [26]: 3.1 µM
GI50 [27]: 1.64 µM
TGI [27]: 3.07 µM
GI50 [28]: 1.81 µM
TGI [28]: 3.4 µM
GI50 [29]: 1.86 µM
TGI [29]: 3.57 µM
GI50 [30]: 1.95 µM
TGI [30]: 4.12 µM
GI50 [31]: 1.78 µM
TGI [31]: 3.26 µM

CC[C@H](C)[C@H](NC(=O)[C@H]1CCCCN1C)C(=O)N(C)[C@H](CCc1nc(C(=O)N[C@@H](Cc2ccccc2)C[C@H](C)C(=O)O)cs1)C(C)C
GI50 [1]: 0.585 µM
TGI [1]: > 25 µM
GI50 [32]: 0.445 µM
TGI [32]: > 25 µM
GI50 [2]: 0.124 µM
TGI [2]: > 25 µM
GI50 [33]: 0.208 µM
TGI [33]: > 25 µM
GI50 [34]: 0.0861 µM
TGI [34]: > 25 µM
GI50 [3]: 0.0888 µM
TGI [3]: 1.14 µM
GI50 [4]: 0.1 µM
TGI [4]: > 25 µM
GI50 [35]: 8.83 µM
TGI [35]: > 25 µM
GI50 [6]: 0.0857 µM
TGI [6]: > 25 µM
GI50 [36]: 0.197 µM
TGI [36]: > 25 µM
GI50 [37]: 0.0371 µM
TGI [37]: 0.181 µM
GI50 [8]: 0.0789 µM
TGI [8]: > 25 µM
GI50 [9]: 0.123 µM
TGI [9]: > 25 µM
GI50 [38]: 0.138 µM
TGI [38]: > 25 µM
GI50 [39]: 0.0585 µM
TGI [39]: > 25 µM
GI50 [10]: 1.82 µM
TGI [10]: > 25 µM
GI50 [40]: 0.476 µM
TGI [40]: > 25 µM
GI50 [41]: 0.632 µM
TGI [41]: > 25 µM
GI50 [11]: 0.272 µM
TGI [11]: > 25 µM
GI50 [12]: 0.643 µM
TGI [12]: > 25 µM
GI50 [13]: 0.367 µM
TGI [13]: > 25 µM
GI50 [42]: 0.0875 µM
TGI [42]: 3.24 µM
GI50 [14]: 0.0351 µM
TGI [14]: 0.579 µM
GI50 [43]: 0.0166 µM
TGI [43]: > 25 µM
GI50 [16]: 0.565 µM
TGI [16]: > 25 µM
GI50 [44]: 0.126 µM
TGI [44]: 6.94 µM
GI50 [45]: 2.98 µM
TGI [45]: > 25 µM
GI50 [17]: 0.92 µM
TGI [17]: > 25 µM
GI50 [18]: > 14.9 µM
TGI [18]: > 25 µM
GI50 [46]: 0.123 µM
TGI [46]: > 25 µM
GI50 [47]: 0.144 µM
TGI [47]: 1.83 µM
GI50 [19]: > 25 µM
TGI [19]: > 25 µM
GI50 [20]: > 14.1 µM
TGI [20]: > 25 µM
GI50 [21]: 1.94 µM
TGI [21]: > 25 µM
GI50 [22]: 0.127 µM
TGI [22]: > 25 µM
GI50 [48]: 0.596 µM
TGI [48]: > 25 µM
GI50 [24]: 0.0621 µM
TGI [24]: > 25 µM
GI50 [25]: 0.143 µM
GI50 [26]: 1.37 µM
TGI [26]: > 25 µM
GI50 [49]: 0.0271 µM
TGI [49]: > 25 µM
GI50 [27]: 0.012 µM
TGI [27]: 0.0724 µM
GI50 [28]: 0.389 µM
TGI [28]: > 25 µM
GI50 [50]: 1.34 µM
TGI [50]: > 25 µM
GI50 [29]: 0.115 µM
TGI [29]: > 25 µM
GI50 [30]: 0.184 µM
TGI [30]: > 25 µM
GI50 [51]: 0.0553 µM
TGI [51]: 0.174 µM
GI50 [52]: > 25 µM
TGI [52]: > 25 µM
GI50 [53]: 0.164 µM
TGI [53]: > 25 µM
GI50 [31]: > 25 µM
TGI [31]: > 25 µM
GI50 [54]: 0.123 µM
TGI [54]: > 25 µM
GI50 [55]: 0.223 µM
TGI [55]: > 25 µM
GI50 [56]: 0.133 µM
TGI [56]: > 25 µM
GI50 [57]: 0.61 µM
TGI [57]: > 25 µM

CCCS(=O)(=O)Nc1ccc(F)c(C(=O)c2c[nH]c3ncc(-c4ccc(OCCCC5CCCCN5)nc4)cc23)c1F (stereo unspecified)
GI50 [1]: 0.875 µM
TGI [1]: > 100 µM
GI50 [32]: 2.14 µM
TGI [32]: > 100 µM
GI50 [9]: 0.493 µM
TGI [9]: 2.82 µM
GI50 [41]: > 100 µM
TGI [41]: > 100 µM
GI50 [15]: 1.28 µM
TGI [15]: 10.7 µM
GI50 [45]: > 100 µM
TGI [45]: > 100 µM
GI50 [17]: > 100 µM
TGI [17]: > 100 µM
GI50 [18]: 7.79 µM
TGI [18]: > 100 µM
GI50 [19]: > 100 µM
TGI [19]: > 100 µM
GI50 [20]: > 100 µM
TGI [20]: > 100 µM
GI50 [25]: 3.97 µM
TGI [25]: > 100 µM
GI50 [26]: 16.9 µM
TGI [26]: > 100 µM
GI50 [27]: 0.03 µM
TGI [27]: > 100 µM
GI50 [50]: > 100 µM
TGI [50]: > 100 µM
GI50 [52]: 0.0136 µM
TGI [52]: 0.0967 µM
GI50 [55]: 0.865 µM
TGI [55]: > 100 µM
GI50 [57]: 9.63 µM
TGI [57]: > 100 µM
